Molecules are shown by their SMILES.

Assay [1] relates to rice, transplanted. Description: Test F flood (paddy) test. Format: in vivo, Oryza sativa cv. Japonica—M202. The following applies: 21 d, scale 0-100. An excerpt: (§1) Three plastic pots (ca. 16-cm diameter) per rate were partially filled with sterilized Tama silt loam soil comprising a 35:50:15 ratio of sand, silt and clay and 2.6% organic matter. Separate plantings for each of the three pots were as follows. Seeds from the U.S. of monochoria (Monochoria vaginalis), sedge, umbrella (small-flower umbrella sedge, Cyperus difformis), bulrush, […] bulrush, Scirpus juncoides), and […] (purple […] coccinea), were planted into one 16-cm pot for each rate. Seeds from the U.S. of flatsedge, rice (rice flatsedge, Cyperus iria), sprangletop, Brdd. (bearded sprangletop, Leptochloa fascicularis), one stand of 9 or 10 water seeded rice seedlings (Rice, W.S. Jap, Oryza sativa cv. 'Japonica-[…]' or Rice, W.S. Ind, 'Indica'), and two stands of 3 or 4 seedlings of rice, transplanted (transplanted rice, Oryza sativa cv. 'Japonica-[…]') were planted into one 16-cm pot for each rate. Seeds from the U.S. of barnyardgrass (Echinochloa crus-galli), […] (common […], Alisma plantago-aquatica), and watergrass, late (late watergrass, Echinochloa oryzicola) were planted into one 16-cm pot for each rate. Plantings were sequential so that crop and weed species were at the 2.0 to 2.5-leaf stage at time of treatment. Potted plants were grown in a greenhouse with day/night temperature settings of 30/27° C., and supplemental balanced lighting was provided to maintain a 16-h photoperiod. Test pots were maintained in the greenhouse until test completion. At time of treatment, test pots were flooded to 3 cm above the soil surface, treated by application of test compounds directly to the paddy water, and then maintained at that water depth for the duration of the test. Effects of treatments on rice and weeds were visually evaluated by comparison to untreated controls after 21 d. Plant response ratings, summarized in Table F, are based on a scale of 0 to 100 where 0 is no effect and 100 is complete control. A dash (-) response means no test result.

In assay [2] the test system is flatsedge, rice. Nature of the assay: Test F flood (paddy) test. Particulars: 21 d, scale 0-100. The format is in vivo, Cyperus iria.
Source text: as §1

The test system of assay [3] is redstem. Description: Test F flood (paddy) test. The following applies: 21 d, scale 0-100. The format is in vivo, Ammannia coccinea.
Source text: as §1

The test system of assay [4] is dayflower, VA. Description: Test E preemergence herbicide test. The arrangement: key: 0 = no effect, 100 = complete control. The format is in vivo, Commelina virginica. In outline: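 Seeds sown in silt loam soil received preemergence treatment with compound in a non-phytotoxic solvent mixture containing surfactant. After 21 days in the greenhouse, plants were visually rated against untreated controls on a 0 (no effect) to 100 (complete control) scale.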

For the molecule `O=C1NCC(c2cccc(C(F)(F)F)c2)C1C(=O)Nc1ccccc1F` (racemic) [Compound 3], the “Plant response rating, Rice, Transplanted” value in assay [1] (250 g ai/ha) and in assay [1] (500 g ai/ha) was 0 throughout. For the same molecule, the “Plant response rating, Flatsedge, Rice” value in assay [2] (250 g ai/ha) was determined as 0; in assay [2] (500 g ai/ha) it was 20. Further, the “Plant response rating, Redstem” value was found to be 0 in assay [3] (250 g ai/ha) and 20 in assay [3] (500 g ai/ha).

Turning to `O=C1NCC(c2ccc(C(F)(F)F)cc2)C1C(=O)Nc1ccc(F)c(F)c1F` (stereo not shown) [Compound 232], the “Plant response rating, Dayflower, VA” value in assay [4] (31 g ai/ha) is 0; in assay [4] (62 g ai/ha), 0; in assay [4] (125 g ai/ha), 0; in assay [4] (250 g ai/ha), 10.

For the molecule `O=C1NCC(c2ccc(F)cc2)C1C(=O)Nc1ccccc1F` (racemic) [Compound 16], the “Plant response rating, Dayflower, VA” value in assay [4] (16 g ai/ha), in assay [4] (62 g ai/ha) and in assay [4] (125 g ai/ha) was 0 in each case.

As for `O=C1NCC(c2ccc(C(F)(F)F)c(F)c2)C1C(=O)Nc1cccc(F)c1F` (racemic) [Compound 247], the “Plant response rating, Rice, Transplanted” value stood at 0 in assay [1] (125 g ai/ha); 0 in assay [1] (250 g ai/ha); 0 in assay [1] (500 g ai/ha); 10 in assay [1] (1000 g ai/ha); 15 in assay [1] (2000 g ai/ha). In addition, the “Plant response rating, Flatsedge, Rice” value is on record as 0 in assay [2] (125 g ai/ha); 0 in assay [2] (250 g ai/ha); 0 in assay [2] (500 g ai/ha); 0 in assay [2] (1000 g ai/ha); 35 in assay [2] (2000 g ai/ha). Further, the “Plant response rating, Redstem” value is given as 0 in assay [3] (125 g ai/ha); 0 in assay [3] (250 g ai/ha); 0 in assay [3] (500 g ai/ha); 50 in assay [3] (1000 g ai/ha); 55 in assay [3] (2000 g ai/ha).

Source of the values: US10294202B2, “Pyrrolidinones as herbicides” (FMC Corporation, priority 2013, dated 2019).
